Experimental data taken from EP2281824A1, “Furan-imidazolone derivatives, for the treatment of cognitive, neurodegenerative or neuronal diseases or disorders” (NOSCIRA, S.A., priority 2009, dated 2011).

Experiments:
[1] = target: T1, BACE-1 β-Secretase recombinant human enzyme (Homo sapiens, UniProt P56817); experiment: BACE assay (time-resolved fluorescence, TruPoint BACE1 substrate); format: biochemical; settings: 200 nM peptide substrate, 8 nM enzyme, sodium acetate pH 4.5, 1 h at room temperature; read-out: IC50 Inhibition of BACE Activity
T1 construct: purchased R&D Systems
Experimental: This assay is based on time-resolved fluorescence ("TRF") technology, using a. BACE peptide substrate containing a fluorescent europium chelate coupled to one end and a quencher coupled to the other end. […] The reagents which are used in this assay are BACE-1 β-Secretase recombinant human enzyme (R&D Systems, Minneapolis, MN), TruPoint™ BACE1 substrate (Perkin Elmer Waltham, MA), sodium acetate, CHAPS and EDTA (Sigma Aldrich, St Louis, MO). The assay is carried out in a 96-well microplate in a final volume of 100 µl using 200 nM peptide substrate and 8 nM enzyme in 50 mM sodium acetate pH 4.5 with 1 mM EDTA and 0.2% (w/v) CHAPS. The plates are incubated for 1 h in the dark at room temperature and then read in a fluorimeter plate reader provided with time-resolved fluorescence capabilities (PolarStar Optima™, BMG-Labtech, Offenburg, Germany) using 337 nm as excitation wavelength and 615 nm as the emission wavelength. Compounds are tested in duplicate using a concentration range extending from 5 nM to 100 µM, using 10 µM H-4848 (commercial BACE inhibitor, BACHEM, Bubendorf, Switzerland) as control.
The compounds of formula (I) of the present invention where submitted to the above indicated assay, in order to determine their BACE activity inhibition. The results, indicated in IC50 format, are indicated below in Table I. IC50 is the half maximal inhibitory concentration, which is a measure of the effectiveness of a compound in inhibiting biological or biochemical function. This quantitative measure indicates the concentration of a particular substance is needed to inhibit a given biological process by half. In other words, it is the half maximal (50%) inhibitory concentration (IC) of a substance.

Aβ secretion = experiment: Inhibition of beta-amyloid secretion (Aβ1-40 ELISA of cell culture supernatants); format: cell-based; settings: CHO-7W; CHO7w cell line stably transfected with human BACE, 48 hours, Aβ (1-40) in supernatants
Experimental: To quantify human Aβ1-40 an ELISA-based commercial kit was used (Immunoassay Kit Human β Amyloid 1-40, The Genetics Company, Schlieren, Switzerland). Aβ (1-40) peptide was quantified from cell culture supernatants using a CHO7w cell line stably transfected with human BACE. β-Secretase inhibitor IV (Calbiochem, San Diego, CA), was used as Aβ secretion reduction positive control in all the Aβ secretion studies. Cells were grown in DMEM supplemented with 2% Foetal bovine serum, 1% penicillin-streptomycin, 1% L-glutamine and 200 µg/ml G418. Cells were seeded in 96-well culture microplates at 5000 cells/well and treated with 10 µM β secretase inhibitor IV or compounds for 48 hours. Then cell culture supernatants were collected and analyzed according to the kit manufacturer's instructions. At 10 µM β-secretase inhibitor IV the inhibition of Aβ secretion inhibition is usually between 70 and 100 %.
Some of the compounds of formula (I) of the present invention where submitted to the above indicated assay, in order to determine their capacity of inhibiting Aβ secretion. The results, indicated in IC50 format, are indicated below in Table I. Table I

T1 sequence (P56817 46-501): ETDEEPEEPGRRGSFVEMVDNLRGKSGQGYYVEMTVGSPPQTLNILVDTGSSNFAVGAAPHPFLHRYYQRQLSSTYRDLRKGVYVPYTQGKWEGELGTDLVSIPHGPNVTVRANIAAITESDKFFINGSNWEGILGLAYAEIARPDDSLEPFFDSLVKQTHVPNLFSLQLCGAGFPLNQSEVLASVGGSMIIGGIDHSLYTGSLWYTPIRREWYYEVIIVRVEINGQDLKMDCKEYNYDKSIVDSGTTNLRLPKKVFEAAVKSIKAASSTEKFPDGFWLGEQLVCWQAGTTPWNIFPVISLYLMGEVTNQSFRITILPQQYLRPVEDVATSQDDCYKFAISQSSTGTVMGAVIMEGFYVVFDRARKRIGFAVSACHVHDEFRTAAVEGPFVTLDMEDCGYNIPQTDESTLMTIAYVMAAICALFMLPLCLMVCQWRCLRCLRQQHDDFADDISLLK

IC50 [1] | IC50 (Aβ secretion) | SMILES
110 nM |  | NC1=NC(=Cc2ccc(-c3ccc([N+](=O)[O-])cc3)o2)C(=O)N1 [Compound 1, 2-amino-5-[5-(4-nitro-phenyl)-furan-2-ylmethylene]-3,5 dihydro-imidazol-4-one]
369 nM |  | COc1ccc(-c2ccc(C=C3N=C(N)NC3=O)o2)c(OC)c1 [Compound 3, 2-amino-5-[5-(2,4-dimethoxy-phenyl)-furan-2-ylmethylene]-3,5-dihydro-imidazol-4-one]
250 nM | 30000 nM | NC1=NC(=Cc2ccc(-c3ccc4c(c3)OCO4)o2)C(=O)N1 [Compound 4, 2-amino-5-(5-benzo[1,3]dioxol-5-yl-furan-2-ylmethylene)-3,5-dihydro-imidazol-4-one]
360 nM | 40000 nM | COc1ncccc1-c1ccc(C=C2N=C(N)NC2=O)o1 [Compound 5, 2-amino-5-[5-(2-methoxy-pyridin-3-yl)-furan-2-ylmethylene]-3,5-dihydro-imidazol-4-one]
1320 nM |  | COc1ncc(-c2ccc(C=C3N=C(N)NC3=O)o2)c(OC)n1 [Compound 6, 2-amino-5-[5-(2,4-dimethoxy-pyrimidin-5-yl)-furan-2-ylmethylene]-3,5-dihydro-imidazol-4-one]
390 nM |  | Cc1noc(C)c1-c1ccc(C=C2N=C(N)NC2=O)o1 [Compound 7, 2-Amino-5-[5-(3,5-dimethyl-isoxazol-4-yl)-furan-2-ylmethylene]-3,5-dihydro-imidazol-4-one]
1300 nM |  | NC1=NC(=Cc2ccc(-c3ncccn3)o2)C(=O)N1 [Compound 8, 2-amino-5-(5-pyrimidin-2-yl-furan-2-ylmethylene)-3,5-dihydro-imidazol-4-one]
711 nM | 45000 nM | COC(=O)c1ccc(OC)c(-c2ccc(C=C3N=C(N)NC3=O)o2)c1 [Compound 9, 3-[5-(2-amino-5-oxo-1,5-dihydro-imidazol-4-ylidenemethyl)-furan-2-yl]-4-methoxy-benzoic acid methyl ester]
319 nM |  | COc1ccc(-c2ccc(C=C3N=C(N)NC3=O)o2)cc1Cl [Compound 10, 2-Amino-5-[5-(3-chloro-4-methoxy-phenyl)-furan-2-ylmethylene]-3,5-dihydro-imidazol-4-one]
220 nM |  | COc1ccc(C#N)cc1-c1ccc(C=C2N=C(N)N(C)C2=O)o1 [Compound 11, 3-[5-(2-Amino-1-methyl-5-oxo-1,5-dihydro-imidazol-4-ylidenemethyl)-furan-2-yl]-4-methoxy-benzonitrile]
1230 nM |  | COc1ccc(-c2ccc(C=C3N=C(N)N(Cc4ccccc4)C3=O)o2)cc1Cl [Compound 12, 2-Amino-3-benzyl-5-[5-(3-chloro-4-methoxy-phenyl)-furan-2-ylmethylene]-3,5-dihydro-imidazol-4-one]
810 nM |  | COCCN1C(=O)C(=Cc2ccc(-c3ccc(OC)c(Cl)c3)o2)N=C1N [Compound 13, 2-Amino-5-[5-(3-chloro-4-methoxy-phenyl)-furan-2-ylmethylene]-3-(2-methoxy-ethyl)-3,5-dihydro-imidazol-4-one]
540 nM |  | COc1ncccc1-c1ccc(C=C2N=C(N)N(C)C2=O)o1 [Compound 14, 2-Amino-5-[5-(2-methoxy-pyridin-3-yl)-furan-2-ylmethylene]-3-methyl-3,5-dihydro-imidazol-4-one]
346 nM |  | COc1ccc(-c2ccc(C=C3N=C(N)N(C)C3=O)o2)c(OC)c1 [Compound 15, 2-Amino-5-[5-(2,4-dimethoxy-phenyl)-furan-2-ylmethylene]-3-methyl-3,5-dihydro-imidazol-4-one]
1230 nM |  | Cc1noc(C)c1-c1ccc(C=C2N=C(N)N(C)C2=O)o1 [Compound 16, 2-amino-5-[5-(3,5-dimethyl-isoxazol-4-yl)-furan-2-ylmethylene]-3-methyl-3,5-dihydro-imidazol-4-one]
422 nM | 35000 nM | COc1ccc(-c2ccc(C=C3N=C(N)NC3=O)o2)cc1 [Compound 17, 2-Amino-5-[5-(4-methoxy-phenyl)-furan-2-ylmethylene]-3,5-dihydro-imidazol-4-one]
400 nM |  | CN1C(=O)C(=Cc2ccc(-c3ccc([N+](=O)[O-])cc3)o2)N=C1N [Compound 18, Acetate 1-methyl-4-[5-(4-nitro-phenyl)-furan-2-ylmethylene]-5-oxo-4,5-dihydro-1H-imidazol-2-yl-ammonium]

SMILES | IC50 [1] | IC50 (Aβ secretion)
COc1ccc(-c2ccc(C=C3N=C(N)N(C)C3=O)o2)cc1Cl [Compound 2, 2-amino-S-[S-(3-chloro-4-methoxy-phenyl)-furan-2-ylmethylene]-3-methyl-3,5-dihydro-imidazol-4-one] | 326 nM | 
